Laboratory results as given in ChEMBL document CHEMBL3044858, “Design, synthesis, and biological evaluation of new 4-thiazolidinone derivatives substituted with benzimidazole ring as potential chemotherapeutic agents” (Med Chem Res, 2013).
pIC50: −log10 of the molar value. The source made the active and inactive calls. No cut-off for these calls is given here.

Tests used:
MCF7 [1] = assay: Anticancer activity against Homo sapiens (human) MCF7 cells assessed as growth inhibition after 48 hr by SRB assay; type: functional, cell-based; settings: MCF7, 48 h
[2] = target: T1, Arylamine N-acetyltransferase 1 (Homo sapiens, UniProt P18440); assay: Inhibition of Homo sapiens (human) arylamine N-acetyltransferase 1
T1 sequence (P18440 whole entry): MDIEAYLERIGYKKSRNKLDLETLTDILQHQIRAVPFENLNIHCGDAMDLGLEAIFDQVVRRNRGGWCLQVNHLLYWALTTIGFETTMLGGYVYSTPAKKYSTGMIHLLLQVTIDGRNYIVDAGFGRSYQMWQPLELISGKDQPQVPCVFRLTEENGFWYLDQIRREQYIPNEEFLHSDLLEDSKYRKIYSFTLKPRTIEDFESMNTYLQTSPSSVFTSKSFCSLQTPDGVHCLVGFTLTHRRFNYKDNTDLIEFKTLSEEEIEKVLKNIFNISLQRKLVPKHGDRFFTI

MCF7 [3] = assay: Anticancer activity against Homo sapiens (human) MCF7 cells assessed as cell growth at 100 uM after 48 hr by SRB assay; type: functional, cell-based; settings: MCF7, 48 h; for growth at 100 µM: read-out: Activity
HCT-116 [4] = assay: Anticancer activity against Homo sapiens (human) HCT116 cells assessed as cell growth at 100 uM after 48 hr by SRB assay; type: functional, cell-based; settings: HCT-116, 48 h; for growth at 100 µM: read-out: Activity
HepG2 [5] = assay: Anticancer activity against Homo sapiens (human) HepG2 cells assessed as cell growth at 100 uM after 48 hr by SRB assay; type: functional, cell-based; settings: HepG2, 48 h; for growth at 100 µM: read-out: Activity
Blood = assay: Toxicity in Homo sapiens (human) blood assessed as hemolysis
[6] = Cytotoxicity against lymphocytes in Homo sapiens (human) whole blood assessed as inhibition of cell viability after 24 to 96 hr by neutral red uptake assay; type: tissue-based; settings: Lymphocyte
Hepatitis C virus [7] = assay: Antiviral activity against Hepatitis C virus isolated from PBMC of infected patient assessed as disappearance of (+) and or (-) strands of viral RNA at 0.30 uM after 96 hr by qualitative RT-PCR analysis; type: functional, organism-based; settings: Hepacivirus hominis
Hepatitis C virus [8] = assay: Antiviral activity against Hepatitis C virus infected HepG2 cells assessed as disappearance of (+) and or (-) strands of viral RNA at 0.30 uM after 96 hr by qualitative RT-PCR analysis; type: functional, organism-based; settings: Hepacivirus hominis
Hepatitis C virus [9] = assay: Antiviral activity against Hepatitis C virus infected HepG2 cells assessed as disappearance of (+) and or (-) strands of viral RNA at 1.116 uM after 96 hr by qualitative RT-PCR analysis; type: functional, organism-based; settings: Hepacivirus hominis
Hepatitis C virus [10] = assay: Antiviral activity against Hepatitis C virus isolated from PBMC of infected patient assessed as disappearance of (+) and or (-) strands of viral RNA at 1.116 uM after 96 hr by qualitative RT-PCR analysis; type: functional, organism-based; settings: Hepacivirus hominis
Hepatitis C virus [11] = assay: Antiviral activity against Hepatitis C virus infected HepG2 cells assessed as disappearance of (+) and or (-) strands of viral RNA at 0.647 uM after 96 hr by qualitative RT-PCR analysis; type: functional, organism-based; settings: Hepacivirus hominis
Hepatitis C virus [12] = assay: Antiviral activity against Hepatitis C virus isolated from PBMC of infected patient assessed as disappearance of (+) and or (-) strands of viral RNA at 0.647 uM after 96 hr by qualitative RT-PCR analysis; type: functional, organism-based; settings: Hepacivirus hominis
Hepatitis C virus [13] = assay: Antiviral activity against Hepatitis C virus infected HepG2 cells assessed as disappearance of (+) and or (-) strands of viral RNA at 0.611 uM after 96 hr by qualitative RT-PCR analysis; type: functional, organism-based; settings: Hepacivirus hominis
Hepatitis C virus [14] = assay: Antiviral activity against Hepatitis C virus isolated from PBMC of infected patient assessed as disappearance of (+) and or (-) strands of viral RNA at 0.611 uM after 96 hr by qualitative RT-PCR analysis; type: functional, organism-based; settings: Hepacivirus hominis
Hepatitis C virus [15] = assay: Antiviral activity against Hepatitis C virus isolated from PBMC of infected patient assessed as disappearance of (+) and or (-) strands of viral RNA at 0.295 uM after 96 hr by qualitative RT-PCR analysis; type: functional, organism-based; settings: Hepacivirus hominis
Hepatitis C virus [16] = assay: Antiviral activity against Hepatitis C virus infected HepG2 cells assessed as disappearance of (+) and or (-) strands of viral RNA at 0.295 uM after 96 hr by qualitative RT-PCR analysis; type: functional, organism-based; settings: Hepacivirus hominis
Hepatitis C virus [17] = assay: Antiviral activity against Hepatitis C virus isolated from PBMC of infected patient assessed as disappearance of (+) and or (-) strands of viral RNA at 0.077 uM after 96 hr by qualitative RT-PCR analysis; type: functional, organism-based; settings: Hepacivirus hominis
Hepatitis C virus [18] = assay: Antiviral activity against Hepatitis C virus infected HepG2 cells assessed as disappearance of (+) and or (-) strands of viral RNA at 0.077 uM after 96 hr by qualitative RT-PCR analysis; type: functional, organism-based; settings: Hepacivirus hominis
Hepatitis C virus [19] = assay: Antiviral activity against Hepatitis C virus infected in HepG2 cells assessed as disappearance of (+) and or (-) strands of viral RNA at 0.312 uM after 96 hr by qualitative RT-PCR analysis; type: functional, organism-based; settings: Hepacivirus hominis
Hepatitis C virus [20] = assay: Antiviral activity against Hepatitis C virus isolated from PBMC of infected patient assessed as disappearance of (+) and or (-) strands of viral RNA at 0.312 uM after 96 hr by qualitative RT-PCR analysis; type: functional, organism-based; settings: Hepacivirus hominis
HepG2 [21] = assay: Anticancer activity against Homo sapiens (human) HepG2 cells assessed as growth inhibition after 48 hr by SRB assay; type: functional, cell-based; settings: HepG2, 48 h
Hepatitis C virus [22] = assay: Antiviral activity against Hepatitis C virus isolated from PBMC of infected patient assessed as disappearance of (+) and or (-) strands of viral RNA at 0.394 uM after 96 hr by qualitative RT-PCR analysis; type: functional, organism-based; settings: Hepacivirus hominis
Hepatitis C virus [23] = assay: Antiviral activity against Hepatitis C virus infected in HepG2 cells assessed as disappearance of (+) and or (-) strands of viral RNA at 0.394 uM after 96 hr by qualitative RT-PCR analysis; type: functional, organism-based; settings: Hepacivirus hominis
Hepatitis C virus [24] = assay: Antiviral activity against Hepatitis C virus infected HepG2 cells assessed as disappearance of (+) and or (-) strands of viral RNA at 0.108 uM after 96 hr by qualitative RT-PCR analysis; type: functional, organism-based; settings: Hepacivirus hominis
Hepatitis C virus [25] = assay: Antiviral activity against Hepatitis C virus isolated from PBMC of infected patient assessed as disappearance of (+) and or (-) strands of viral RNA at 0.108 uM after 96 hr by qualitative RT-PCR analysis; type: functional, organism-based; settings: Hepacivirus hominis
Hepatitis C virus [26] = assay: Antiviral activity against Hepatitis C virus infected HepG2 cells assessed as disappearance of (+) and or (-) strands of viral RNA at 0.078 uM after 96 hr by qualitative RT-PCR analysis; type: functional, organism-based; settings: Hepacivirus hominis
Hepatitis C virus [27] = assay: Antiviral activity against Hepatitis C virus isolated from PBMC of infected patient assessed as disappearance of (+) and or (-) strands of viral RNA at 0.078 uM after 96 hr by qualitative RT-PCR analysis; type: functional, organism-based; settings: Hepacivirus hominis
HCT-116 [28] = assay: Anticancer activity against Homo sapiens (human) HCT116 cells assessed as growth inhibition after 48 hr by SRB assay; type: functional, cell-based; settings: HCT-116, 48 h

Structure (SMILES) | pIC50 (MCF7 [1]) | growth at 100 µM (MCF7 [3]) | growth at 100 µM (HCT-116 [4]) | growth at 100 µM (HepG2 [5]) | Activity (Blood) | pIC50 [6] | also measured
O=C1/C(=C/c2ccccc2)SC(=S)N1Cc1nc2ccccc2[nH]1 | 4.46 |  |  |  |  |  | 
O=C1NC(=O)/C(=C/c2ccccc2O)S1 |  |  |  |  |  |  | pIC50 [2]: 5.96
COc1ccc(/C=C2/S/C(=N\c3ccccc3)N(Cc3nc4ccccc4[nH]3)C2=O)c(OC)c1 |  | -1.19% | 15.5% | 18.4% |  |  | 
O=C1/C(=C\c2ccc([N+](=O)[O-])cc2)S/C(=N\c2ccccc2)N1Cc1nc2ccccc2[nH]1 |  | -0.79% | 18% | 24% |  |  | 
O=C1/C(=C/c2ccccc2Cl)SC(=S)N1Cc1nc2ccccc2[nH]1 | 4.40 | -4.32% | 27.6% | 9.07% |  |  | 
COc1ccc(/C=C2\SC(=S)N(Cc3nc4ccccc4[nH]3)C2=O)c(OC)c1 |  | 0.34% | 19.2% | 17.8% |  |  | 
CC(=O)NS(=O)(=O)c1ccc(N/N=C2/SC(=S)N(Cc3nc4ccccc4[nH]3)C2=O)cc1 |  |  |  |  | Non-toxic | 4.82 | Activity (Hepatitis C virus [7]): inactive; Activity (Hepatitis C virus [8]): inactive
O=C1Nc2ccccc2/C1=C1/SC(=S)N(Cc2nc3ccccc3[nH]2)C1=O | 4.45 |  |  |  | Non-toxic | 4.25 | Activity (Hepatitis C virus [9]): inactive; Activity (Hepatitis C virus [10]): inactive
O=C1/C(=C\c2ccc(Cl)cc2)S/C(=N\c2ccccc2)N1Cc1nc2ccccc2[nH]1 |  |  |  |  | Non-toxic | 4.49 | Activity (Hepatitis C virus [11]): inactive; Activity (Hepatitis C virus [12]): inactive
O=C1/C(=N\Nc2ccc(S(=O)(=O)Nc3ncccn3)cc2)SC(=S)N1Cc1nc2ccccc2[nH]1 |  |  |  |  | Non-toxic | 4.51 | Activity (Hepatitis C virus [13]): inactive; Activity (Hepatitis C virus [14]): inactive
CN(C)c1ccc(/C=C2\SC(=S)N(Cc3nc4ccccc4[nH]3)C2=O)cc1 |  |  |  |  | Non-toxic | 4.83 | Activity (Hepatitis C virus [15]): inactive; Activity (Hepatitis C virus [16]): inactive
COc1ccc(OC)c(/C=C2\SC(=S)N(Cc3nc4ccccc4[nH]3)C2=O)c1 | 4.56 | -2.27% | 20.8% | 18.6% | Non-toxic | 4.41 | Activity (Hepatitis C virus [17]): inactive; Activity (Hepatitis C virus [18]): inactive
O=C1/C(=C\c2ccccc2Cl)S/C(=N\c2ccccc2)N1Cc1nc2ccccc2[nH]1 | 4.46 | -1.74% | 13.8% | 18.9% |  |  | 
O=C1Nc2ccccc2/C1=C1/S/C(=N\c2ccccc2)N(Cc2nc3ccccc3[nH]2)C1=O |  |  |  |  | Non-toxic | 4.81 | Activity (Hepatitis C virus [19]): inactive; pIC50 (MCF7 [3]): 5.15; pIC50 (HCT-116 [4]): 4.79; pIC50 (HepG2 [5]): 5.17; Activity (Hepatitis C virus [20]): inactive; pIC50 (HepG2 [21]): 5.23
Cc1ccc(/N=C2\S/C(=C\c3ccc(Cl)cc3)C(=O)N2Cc2nc3ccccc3[nH]2)cc1 |  |  |  |  | Non-toxic | 4.71 | Activity (Hepatitis C virus [22]): inactive; Activity (Hepatitis C virus [23]): inactive
COc1ccc(/C=C2\SC(=S)N(Cc3nc4ccccc4[nH]3)C2=O)cc1 | 4.33 | -5.75% | 16.2% | 11.8% | Non-toxic | 4.27 | Activity (Hepatitis C virus [24]): inactive; Activity (Hepatitis C virus [25]): inactive
O=C1/C(=C/c2ccc([N+](=O)[O-])cc2)SC(=S)N1Cc1nc2ccccc2[nH]1 | 4.41 |  |  |  | Non-toxic | 4.40 | Activity (Hepatitis C virus [26]): inactive; Activity (Hepatitis C virus [27]): inactive
O=C1/C(=C/C=C/c2ccccc2)SC(=S)N1Cc1nc2ccccc2[nH]1 | 4.43 | -3.93% | 21.2% | 14.2% |  |  | 
O=C1/C(=C\c2ccccc2)S/C(=N\c2ccccc2)N1Cc1nc2ccccc2[nH]1 |  | -0.69% | 7% | 24.4% |  |  | pIC50 (HCT-116 [28]): 5.14
